Laboratory results: PubChem BioAssay AID1508591

conditions: rat; liver microsomes; pH 7.4; 15.0 min; 1.0 µM

| SMILES | half-life [min] |
| --- | --- |
| CCCNC(=O)c1ccc2c(c1)ncn2-c1cc(C)cc(C)c1 | 17 |
| Cc1ccccc1C(=O)N1CCc2cc(N3CCC(NC(=O)Cc4ccccc4)C3)ccc21 (centres undefined) | 11 |
| Cc1ccc(NC(=O)N2CCN(c3nc(N)nc4sc(-c5cccnc5)nc34)CC2)cc1 | 17.1 |
| Cc1ccc(S(=O)(=O)Nc2ccccc2C(=O)Nc2nc(-c3ccccc3)c(Br)s2)cc1 | 10 |
| N#Cc1nc(-c2cccc3ccccc23)oc1NC1CNC1 | > 30 |
| Cc1ccnc(NC(=S)N2CCC(Nc3cccc(C(F)(F)F)c3)CC2)c1 | 20 |
| O=C(NC(c1ccccc1)c1cc(Cl)c2cccnc2c1O)c1cccnc1 (centres undefined) | 18.6 |
| CCCCCn1cc2c(c1-c1ccc(Br)cc1)c(=O)n(C)c(=O)n2C | 6.39 |
| CC(C)(C)OC(=O)N1CCN(c2ccc(NCc3ccc(-c4ccc(C#N)cc4)o3)cc2)CC1 | 3.62 |
| Cc1nn2c(c1-c1ccccc1-c1ccccc1)N(Cc1ccccc1)CCC2 | 1.23 |
| NC(=O)C1CCN(c2nc(-c3ccccc3N)cs2)CC1 | 25.3 |
| CC(C)Oc1ccccc1C(=O)Nc1nc(-c2ccccc2)cs1 | 9 |
| O=C(Nc1cc(C(F)(F)F)ccc1N1CCOCC1)c1n[nH]c(=O)c2ccccc12 | > 30 |
| Cc1ccnc(NC(=S)N2CCN(c3ccc(Cl)cc3Cl)CC2)c1 | > 30 |
| c1coc(-c2nc3ccncc3[nH]2)c1 | > 30 |
| CCOC(=O)c1ccnc2cc(C(OCCN3CCCCC3)c3ccccc3Cl)sc12 (centres undefined) | 2.34 |
| O=C(Cc1ccc(Cl)c(Cl)c1)Nc1ccc(S(=O)(=O)Nc2nncs2)cc1 | > 30 |
| COc1cc(C2CC(=O)Nc3cc4c(cc32)OCCO4)cc(Br)c1OC (centres undefined) | 2.55 |
| COc1ccccc1NC(=O)C1=C(C)Nc2c(C(=O)Nc3ccc(F)cc3)cnn2C1c1ccc(Cl)cc1 (centres undefined) | 3.34 |
| N#Cc1cccc(-c2csc(N3CCC(C(N)=O)CC3)n2)c1 | 1.74 |
| CC(=O)Nc1ccc(N[S+](=O)([O-])c2cccc(NC(=O)c3[nH]c(C)c(C(C)=O)c3C)c2)cc1 | > 30 |
| C[C@H]1[C@@H](CCC(=O)Nc2ccc(F)cc2)O[C@@H]2O[C@]3(C)CC[C@@H]4[C@H](C)CC[C@@H]1[C@@]24OO3 | 2 |
| c1ccc(Nc2cc3c(cn2)CN(Cc2c[nH]c4ccccc24)CCN3)cc1 | 7.47 |
| COc1ccc(CCNC(=O)c2cc3c(=O)n4ccccc4nc3n(CCCN3CCOCC3)c2=N)cc1 | 8.26 |
| Cc1ccnc(NC(=S)N2CCN(c3cccc(Cl)c3Cl)CC2)c1 | 2.4 |
| CNc1ccc(Br)cc(C(=O)/C=C/c2ccc(OC)cc2OC)c1=O | 5.16 |

| SMILES | half-life [min] |
| --- | --- |
| Ic1ccccc1CNC1C2CCN(CC2)C1C(c1ccccc1)c1ccccc1 (centres undefined) | 8.51 |
| O=C(Nc1nc(-c2ccccc2)cs1)c1ccncc1NS(=O)(=O)c1cccc(Cl)c1 | 5 |
| CNc1nc(C#N)c(-c2cccc3ccccc23)o1 | 4.8 |
| O=C(NCCCNc1nc(Nc2cccc(NC(=O)N3CCCC3)c2)ncc1I)c1cccs1 | 1.87 |
| Cc1cc(C)c(C(=O)Nc2cccc([S+](=O)([O-])N3CCCC3)c2)[nH]1 | 6.5 |
| CCOc1ccc(CN2C(=O)c3ccccc3Sc3ccc(C(=O)NC4CCC(C)CC4)cc32)cc1 (centres undefined) | 3.52 |
| Cc1cc(C)nc(NC(=S)N2CCN(c3cc(C(F)(F)F)nc4ccccc34)CC2)c1 | > 30 |
| Cc1ccc(-c2cc(C(=O)O)c3ccccc3n2)cc1 | 22.4 |
| O=C(Nc1nc(-c2ccccc2)cs1)c1ccncc1NS(=O)(=O)c1ccc(F)cc1Cl | 19 |
| CC(C)c1ccccc1-c1ncc(F)c(NC(C)(C)c2ccc(-n3ccnn3)cc2)n1 | 1.6 |
| O=C(Nc1ncc(Cc2ccc(C(F)(F)F)cc2)s1)c1ncc(-c2ccccc2)[nH]1 | > 30 |
| N#C/C(=C\c1ccc(Sc2ccc(Cl)cc2)o1)c1nc2ccccc2[nH]1 | 7.56 |
| Cc1ccnc(NC(=S)N2CCC(c3cccc(C(F)(F)F)c3)CC2)c1 | 24 |
| COc1ccc(-n2nc(C3CCCN(CC4CCCCC4)C3)[nH]c2=O)cc1 (centres undefined) | > 30 |
| COCCNC(=O)c1ccc(-c2ccc(N3CCCCC3)nc2)cc1 | 3.26 |
| Fc1ccc(Nc2nc(-c3ccncc3Cl)nc3ccccc23)cc1F | 19 |
| O=c1[nH]cnc2nc[nH]c12 | > 30 |
| CCOC(=O)c1cc(-c2ccco2)nc2c1c(C)nn2CCC#N | 3.57 |
| CC1(C)C[C@@H]2C[C@@](C)(CN2S(=O)(=O)c2ccc(C(=O)Nc3ccc(Cl)c(S(=O)(=O)N4CCOCC4)c3)cc2)C1 | 3.95 |
| CCCCCCN(CCCCCC)C(=O)Cc1c(-c2ccc(F)cc2)[nH]c2ccccc12 | 2.5 |
| C#CCOc1ccc(-c2nnc(Nc3ccc(NC(C)=O)cc3)c3ccccc23)cc1 | > 30 |
| Cn1c(=O)c2c(-c3ccc(Cl)cc3)n(CCc3ccccc3)cc2n(C)c1=O | 1.11 |
| CCOC(=O)c1[nH]c(C)c(CCC(=O)N2CCN(c3cc(C)ccc3C)CC2)c1C | 2.27 |
| O=C(c1cnn(-c2cccc(F)c2)c1-n1cccc1)N1CCN(c2ccccc2F)CC1 | 1.93 |
| CCCN(C(=O)c1sc2nc3n(c(=O)c2c1C)CCCC3)c1ccccc1C | 1.36 |
| Cc1ccc(CC(=O)Nc2nc(-c3ccc4c(c3)CCN4C(=O)c3ccccc3C)c(C)s2)cc1C | 19 |

| SMILES | half-life [min] |
| --- | --- |
| COc1ccc(-c2ccc3nc(-c4ccccc4C)oc3c2)c(OC)c1OC | > 30 |
| O=S(=O)(c1ccccc1)c1nc(-c2ccc(F)cc2)oc1N1CCCCCC1 | 1.95 |
| C[C@@H]1CC(=O)Nc2cccc(-c3cnn(C(C)(C)C)c3)c2N1 | > 30 |
| Cc1sc(NC(=O)Cc2ccc3c(c2)OCO3)nc1-c1ccc2c(c1)CCN2C | 5.5 |
| Cc1ccccc1C(=O)NC1CCN(c2ccc3nnc(C4CC4)n3n2)CC1 | > 30 |
| O=C(c1ccccc1)N1CCC(c2nn(-c3ccc(F)cc3)c(=O)[nH]2)CC1 | > 30 |
| CCOC(=O)c1ccc(N2C(=O)c3n[nH]c(-c4ccco4)c3C2c2ccc(C)cc2)cc1 (centres undefined) | 8.24 |
| O=C(Nc1ccc(S(=O)(=O)Nc2nccs2)cc1)c1ccc(-c2ccccc2)cc1 | > 30 |
| O=C(Nc1ncnc2sc3c(c12)CCCCC3)c1ccco1 | 2.3 |
| O=C(CCCc1ccc2cccnc2n1)NCc1cc(-c2ccc(F)c(C(F)(F)F)c2)no1 | 9.4 |
| CCOc1cc2c(cc1OCC)CN(C(=O)c1cc3sccc3n1Cc1ccccc1)CC2 | 2.8 |
| Cc1ccc(C)c(SC2=NS(=O)(=O)c3ccccc32)c1 | 1.21 |
| O=C1CCCc2cc(S(=O)(=O)Nc3cnccc3C(=O)Nc3nc(-c4ccccc4)cs3)ccc2N1 | > 30 |
| COc1ccc(-n2nc(C3CCCN(C(=O)Cc4ccc(F)cc4)C3)[nH]c2=O)cc1 (centres undefined) | 8.48 |
| COc1ccc(-n2nc(C)c([C@@H]3C=C[C@@H](NCc4ccc(N(C)C)cc4)C3)c2C)cc1 | 2.69 |
| CC(=O)Nc1ccc(C(=O)Nc2ccc3c(c2)N(C2CCCC2)C(=O)c2ccccc2S3)cc1 | 2.21 |
| COc1c(O)ccc2c1CN1CCc3cc4c(cc3[C@@H]1C2)OCO4 | 18.9 |
| COc1ccc(-c2nc(-c3c(C)noc3C)cc3c2cc(C)n3CCN(C)C)cc1OC | > 30 |
| CC1=C(C(=O)Nc2ccccc2)C(c2ccccc2Br)N=C(Nc2nc3ccccc3o2)N1 (centres undefined) | 27 |
| Cc1cnc(CNc2nc(-c3ccccc3Cl)nc3ccccc23)cn1 | 20 |
| Cc1nc(N)nc2ccccc12 | > 30 |
| Cc1ccc(S(=O)(=O)Nc2ccc(C(=O)Nc3nc(-c4ccc(Cl)cc4)cs3)cc2)cc1 | 16 |
| O=C(CCCN1CCC(n2c(=O)[nH]c3ccccc32)CC1)c1ccc(F)cc1 | 10.9 |
| Cc1cc(SCc2sc(-c3ccc(C(F)(F)F)cc3)nc2C)ccc1OCC(=O)O | > 30 |
| CC(C)NC(=O)N1C[C@@H]2C[C@H](C1)c1ccc(-c3cccc(C(F)(F)F)c3)c(=O)n1C2 | 12.5 |
| O=C1Nc2ccccc2/C1=C/c1cccc(C(=O)O)c1 | > 30 |

| SMILES | half-life [min] |
| --- | --- |
| O=C(Nc1ccc2oc(-c3ccccc3F)nc2c1)c1ccc([N+](=O)[O-])o1 | > 30 |
| O=C(Nc1ncc(Cc2ccc(C(F)(F)F)cc2)s1)c1cnc(-c2ccccc2)o1 | > 30 |
| COc1ccc(NC(=O)c2[nH]c(C)c(C(C)=O)c2C)cc1S(=O)(=O)N1CCCCCC1 | 3 |
| Cc1cc(Oc2ccc(N)cn2)ccc1Cl | 17.8 |
| O=C(Nc1ncc([S+](=O)([O-])N2CCOCC2)s1)c1cccc(Br)c1 | 23 |
| CC(C)CNc1ncnc2onc(-c3ccc(Cl)cc3)c12 | 12 |
| CCOc1ccc(CCNC(=O)c2cc3sccc3n2Cc2ccccc2)c(F)c1OCC | 1.8 |
| Cc1nnc2n1-c1ccc(Cl)cc1C(c1ccccc1)=NC2 | 21.2 |
| Cc1ccc(S(=O)(=O)Nc2ccccc2C(=O)Nc2ncc(-c3ccccc3)s2)cc1 | 13 |
| CN(Cc1cccs1)c1nc(-c2ccccc2C(F)(F)F)nc2ccccc12 | 1.98 |
| COc1ccc(-c2c(-c3cc(C(=O)O)ccn3)ncn2C)cc1 | > 30 |
| CC(=O)c1c(C)[nH]c(C(=O)Nc2ccc(C)c(S(=O)(=O)Nc3ccc(Br)cc3)c2)c1C | 19 |
| CN1CCN(c2ccc(Nc3nc(-c4ccncc4)nc4ccccc34)cc2F)CC1 | 8.8 |
| COc1cc(/C=C2\C(=O)Nc3ccccc32)ccc1O | 12 |
| O=C1NC(=S)NC(=O)C1=Cc1cccn1-c1ccc(O)cc1 | 10.5 |
| CCN1C(=O)c2ccccc2S(=O)c2ccc(NC(=O)Cc3ccc(F)cc3)cc21 (centres undefined) | 6.3 |
| Fc1cccc(Nc2nc(-c3ccncc3)nc3ccccc23)c1F | 11 |
| Cc1ccc(C)c(CN2C(=O)c3ccccc3S(=O)c3ccc(C(=O)N4CCN(c5ccccc5F)CC4)cc32)c1 (centres undefined) | 2.32 |
| O=[N+]([O-])c1cccnc1N/N=C/c1ccccc1O | 7.7 |
| CCOc1ccc(/C=C/c2nc3ccccc3n2S(=O)(=O)c2cccc(Cl)c2)cc1 | > 30 |
| COc1ccc(-c2ccc3ncc(Nc4cccnc4OC)n3n2)cn1 | 10.8 |
| O=C(NCCCc1ccccc1)c1cccc(-c2cc(O)c3ncccc3c2)c1 | 1.65 |
| CC(C)(C)c1ccc(-n2cnc3cc(C(=O)N4CCCCC4)ccc32)cc1 | 2.7 |
| CC(C)c1nc2oc3c(NCCN(C)C)ncnc3c2c2c1COC(C)(C)C2 | > 30 |
| CCN(CC)CCCNC(=O)c1oc2c(c1C)-c1nn(Cc3ccc(Cl)cc3)cc1CC2 | > 30 |
| Cc1ccc(Cl)cc1NS(=O)(=O)c1cc2c(cc1F)NC(=O)CC2 | 4.97 |
